Measured values as given in article PMC7399337, “Biological Properties and Absolute Configuration of Flavanones From Calceolaria thyrsiflora Graham” (Frontiers in Pharmacology, 2020).
In brackets after ≈: the same amount, converted by molar mass.

Experiments:
bacterial growth = test system: bacterial growth; set-up: method as in Bravo et al., 2005; details: high concentrations (1,000 µg/ml); ref Bravo et al., 2005; cited from earlier work
5-hLOX [1] = target: T1, 5-hLOX (Homo sapiens, UniProt P09917); assay: In vitro 5-hLOX enzyme assay (H2DCFDA fluorescence); assay type: biochemical; details: kinetic assays, inhibitor 0–1 μM, substrate 0.2–5 μM
T1 construct: purchased Cayman Chemicals Inc. (Ann Arbor, MI, USA)
T1 sequence (P09917 1-674): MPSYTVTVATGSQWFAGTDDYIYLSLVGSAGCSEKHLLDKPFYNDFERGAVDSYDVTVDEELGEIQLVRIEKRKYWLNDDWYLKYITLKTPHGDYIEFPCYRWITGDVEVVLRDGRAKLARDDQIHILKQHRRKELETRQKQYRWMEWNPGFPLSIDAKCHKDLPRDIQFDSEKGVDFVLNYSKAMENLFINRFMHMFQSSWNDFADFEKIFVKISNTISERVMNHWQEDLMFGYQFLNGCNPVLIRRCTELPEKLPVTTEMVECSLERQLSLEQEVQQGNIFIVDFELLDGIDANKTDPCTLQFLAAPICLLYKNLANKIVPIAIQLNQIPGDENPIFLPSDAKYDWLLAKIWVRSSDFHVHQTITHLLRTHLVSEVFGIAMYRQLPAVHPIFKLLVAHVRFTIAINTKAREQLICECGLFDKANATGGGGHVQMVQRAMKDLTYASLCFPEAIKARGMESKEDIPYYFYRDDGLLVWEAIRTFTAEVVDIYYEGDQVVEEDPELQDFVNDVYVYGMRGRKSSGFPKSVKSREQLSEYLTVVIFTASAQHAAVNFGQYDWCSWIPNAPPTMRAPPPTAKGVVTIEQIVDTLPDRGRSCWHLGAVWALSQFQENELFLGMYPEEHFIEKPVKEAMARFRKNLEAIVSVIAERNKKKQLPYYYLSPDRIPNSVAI

5-hLOX [2] = target: T1, 5-hLOX; assay: as above; assay type: biochemical; details: for Type of inhibition: 5-hLOX
Protocol: The commercially available enzyme 5-hLOX from Cayman Chemicals Inc. (Ann Arbor, MI, USA), was diluted (1:500) in the assay buffer. This contained 4-(2-hydroxyethyl)-1-piperazineethane sulfonic acid (HEPES) 50 mM, ethylenediamine tetraacetic acid (EDTA) 2 mM, adenosine triphosphate (ATP) 10 μM, and CaCl2 10 μM at pH 7.5) admixed with 10 μM of H2DCFDA. The reaction mixture was incubated for 15 min in the assay plate. Later, 280 μL of buffer and 10 μM of inhibitors were added per well and incubated for 30 min at 37°C. Finally, the reaction was started by adding a suitable concentration of arachidonic acid (0.5 μM) and the fluorescence was read in a multimode detector Synergy™ HT Multi-Mode Microplate Reader (Biotek, Bad Friedrichshall, Germany) […] after incubation at room temperature for 1 h. The IC50 values were obtained for analysis of oxidation of H2DCFDA dye to the highly fluorescent 2’,7’-dichloro-fluorescein (DCF) using the non-linear curve-fitting program. […] All data were collected in duplicate and the assays were performed on different days to ensure reproducibility.

E. coli ATCC25922 = assay: Antibacterial MIC, CLSI microdilution, human pathogens; assay type: cell-based; details: Escherichia coli, 18 h, read-out: Minimum inhibitory concentration (MIC)
Protocol: (§1) Briefly, stock solutions (5 mg/ml) of compounds in DMSO were diluted in Mueller-Hinton broth (MHB) to the different two-fold assay concentrations. […] The obtained solution was added to MHB and serially two-fold diluted in a 96-well microplate. A sample of 100 μL of inoculum 1.5 × 10^6 colony forming unit (CFU) ml^-1 in MHB was added and then incubated at 37°C for 18 h. The assay was repeated three times. Wells containing MHB, 100 μL of inoculum, and DMSO served as negative controls.

E. coli 33.1 = assay: as above; assay type: cell-based; details: Escherichia coli; E. coli 33.1 (multi-resistant); 18 h; read-out: Minimum inhibitory concentration (MIC)
Protocol: as §1

S. aureus NTCC8325-4 = assay: as above; assay type: cell-based; details: for MIC: Staphylococcus aureus, NTCC83254, 18 h, read-out: Minimum inhibitory concentration (MIC)
Protocol: as §1

S. aureus MRSA 97-7 = assay: as above; assay type: cell-based; details: 18 h; for MIC: Staphylococcus aureus, read-out: Minimum inhibitory concentration (MIC)
Protocol: as §1

S. aureus MRSA 622-4 = assay: as above; assay type: cell-based; details: 18 h; for MIC: Staphylococcus aureus, read-out: Minimum inhibitory concentration (MIC)
Protocol: as §1

B. cinerea = assay: In vitro fungicidal activity, radial mycelial growth test on PDA; assay type: cell-based; details: Botrytis cinerea, 72 h, read-out: Percentage of inhibition on in vitro mycelial growth of B. cinerea
Protocol: (§2) A strain of Botrytis cinerea isolated from a naturally infected grape (Vitis vinifera) was used in all experiments. Isolated Phytophtora cinnamomi was provided by the Agricultural and Livestock Service of Valparaíso. Both strains were maintained on a potato dextrose agar (PDA) medium (DIFCO, Detroit, MI) at 4°C. The inoculum of both pathogens was grown on PDA and incubates in dark at 23°C for 5 days in the case of B. cinerea and 8 days for P. cinnamomi.
(§3) The fungicidal activity of flavanones, extracts, the negative control (C-) composed of solvent (1% ethanol), and the positive control (C+, commercial fungicide Captan® and metalaxil® for B. cinerea and P. cinnamomi, respectively) were assessed using the radial growth test technique on PDA medium as described ([Taborga et al., 2015]). All test samples were dissolved in ethanol (1%) and water, to obtain final concentrations of 50, 150, and 250 mg/L in the PDA medium. A plug (4 mm) of PDA medium with five-day-old mycelium colonies of the pathogen was placed at the center of a Petri dish with PDA medium with or without studied test samples and were incubated at 23°C in dark for 72 h (B. cinerea) and 120 h (P. cinnamomi). After incubation, the diameters of colonies were measured and the inhibition percentage was calculated as the average of three replicas compared to C-.

[3] = test system: B16-F10 mouse metastatic melanoma cells; assay: In vitro cytotoxic activity, CyQuant cell viability, 72 h; assay type: cell-based; details: Mus musculus, B16-F10, 72 h, read-out: LC50 ± SD
Protocol: Cell viability was measured using a CyQuant® Direct Cell Proliferation Assay Kit (Life Technologies, Grand Island, NY, USA) following the manufacturer’s instruction. Briefly, 5,000 cells per well were seeded onto a flat-bottom 96-well plate in 200 μL final volume. Six hours after seeding, the culture medium was replaced by the medium containing the tested compounds at 0.01 to 100 µM concentrations in DMSO (0.1% final concentration) during 72 h. Untreated cells (medium containing only 0.1% DMSO) were used as controls. At the end of the incubation, 100 μL of culture medium was removed from each well and replaced by detection reagent solution provided by the kit (which is a 1:5 mixture of the reagent CyQUANT®, direct nucleic acid stain and the reagent labeled as CyQUANT® direct background suppressor I). […] At least four independent experiments were performed for each concentration.

[4] = as above; assay type: cell-based; details: mouse
Protocol: (§4) The used cell lines include MDA-MB-231 human breast adenocarcinoma cells, B16-F10 mouse metastatic melanoma cells and MEF primary mouse embryonic fibroblast. Cells were maintained in a DMEM high glucose medium (Mediatech, Manassas, VA, USA) supplemented with 10% (MDA-MB-231 and B16-F10) or 15% (MEF) heat-inactivated fetal bovine serum (HyClone Laboratories, South Logan, USA), 100 IU ml^-1 penicillin and 100 μg ml^-1 streptomycin while maintained at 37°C in a 5% CO2 humidified atmosphere. Cell viability was measured using a CyQuant® Direct Cell Proliferation Assay Kit (Life Technologies, Grand Island, NY, USA) following the manufacturer’s instruction. Briefly, 5,000 cells per well were seeded onto a flat-bottom 96-well plate in 200 μL final volume. Six hours after seeding, the culture medium was replaced by the medium containing the tested compounds at 0.01 to 100 µM concentrations in DMSO (0.1% final concentration) during 72 h. Untreated cells (medium containing only 0.1% DMSO) were used as controls. At the end of the incubation, 100 μL of culture medium was removed from each well and replaced by detection reagent solution provided by the kit (which is a 1:5 mixture of the reagent CyQUANT®, direct nucleic acid stain and the reagent labeled as CyQUANT® direct background suppressor I). Cells were incubated for 1 h and fluorescence emission was measured at 535 nm with excitation at 480 nm in a microplate reader (Infinite 200 PRO, Tecan, Grödig, Austria). At least four independent experiments were performed for each concentration. The results from each experiment were transformed into percentage of controls and the LC50 values were graphically obtained from the dose-response curves. The LC50 value was obtained adjusting the dose-response curve to sigmoidal curves (variable slope) using the GraphPad Prisma 6.0 software ([GraphPad-Software, 2015]).

[5] = test system: MDA-MB-231 human breast adenocarcinoma cells; assay: as above; assay type: cell-based; details: Homo sapiens, MDA-MB-231, 72 h, read-out: LC50 ± SD
Protocol: as §4

S. aureus ATCC = test system: S. aureus ATCC; set-up: method as in Bravo et al., 2005; details: 250 µg/ml; ref Bravo et al., 2005; cited from earlier work
P. cinnamomi = assay: In vitro fungicidal activity, radial mycelial growth test on PDA; assay type: cell-based, Phytophtora cinnamomi; details: 120 h
Protocol: as §2, §3

O=C1Nc2ccc(O)cc2OC1O (stereo not shown) [Compound 7-OH-HBOA, 2,7-dihydroxy-2H-1,4-benzoxazin-3(4H)-one]
inhibitory activity of bacterial growth (bacterial growth): inhibitory activity

O=C1CC(c2ccc(O)c(O)c2)Oc2cc(O)cc(O)c21 (stereo not shown) [Compound 3, 5,7,3’,4’-Tetrahydroxyflavanone]
Ki (5-hLOX [1]): 70 nM | Type of inhibition (5-hLOX [2]): competitive | inhibition at 10 µM (5-hLOX [2]; Flavanones at 10 µM): 88 ± 0.678% | IC50 (5-hLOX [2]; read-out: IC50 (5-hLOX)): 220 nM | MIC (E. coli ATCC25922): > 100 µg/mL | MIC (E. coli 33.1): > 100 µg/mL | MIC (S. aureus NTCC8325-4): > 100 µg/mL | MIC (S. aureus MRSA 97-7): > 100 µg/mL | MIC (S. aureus MRSA 622-4): > 100 µg/mL

O=C1C2CC=CCC2C(=O)N1SC(Cl)(Cl)Cl (stereo not shown) [Captan]
inhibition at 50 µg/mL (B. cinerea; 50 mg/L): 94 ± 5.2% | inhibition at 150 µg/mL (B. cinerea; 150 mg/L): 100 ± 0.1% | inhibition at 250 µg/mL (B. cinerea; 250 mg/L): 100 ± 0.2%

O=c1[nH]c2ccccc2o1 [BOA, 2-benzoxazolinone]
inhibitory activity of bacterial growth (bacterial growth): inhibitory activity

CC1(C)S[C@@H]2[C@H](NC(=O)[C@H](N)c3ccccc3)C(=O)N2[C@H]1C(=O)O [Ampicillin, reference compound]
MIC (E. coli ATCC25922): 60 µg/mL (≈ 172 µM) | MIC (E. coli 33.1): > 100 µg/mL

CN[C@H](CC(C)C)C(=O)N[C@H]1C(=O)N[C@@H](CC(N)=O)C(=O)N[C@H]2C(=O)N[C@H]3C(=O)N[C@H](C(=O)N[C@H](C(=O)O)c4cc(O)cc(O)c4-c4cc3ccc4O)[C@H](O)c3ccc(c(Cl)c3)Oc3cc2cc(c3O[C@@H]2O[C@H](CO)[C@@H](O)[C@H](O)[C@H]2O[C@H]2C[C@](C)(N)[C@H](O)[C@H](C)O2)Oc2ccc(cc2Cl)[C@H]1O [Vancomicin, reference compound]
Minimum inhibitory concentration (MIC) (S. aureus NTCC8325-4; 18 h): 3,5 µg/ml | Minimum inhibitory concentration (MIC) (S. aureus MRSA 97-7): 25 µg/mL (≈ 17.3 µM) | Minimum inhibitory concentration (MIC) (S. aureus MRSA 622-4): 5 µg/mL (≈ 3.45 µM)

COc1cc([C@@H]2c3cc4c(cc3[C@@H](O[C@@H]3O[C@@H]5CO[C@@H](C)O[C@H]5[C@H](O)[C@H]3O)[C@H]3COC(=O)[C@H]23)OCO4)cc(OC)c1O [Etoposide, reference compound]
CC50 [3]: 1740 ± 320 nM | CC50 at 72 h [4]: 1030 ± 170 nM | CC50 [5]: 1330 ± 280 nM

O=C1Nc2ccccc2OC1O (stereo not shown) [HBOA, 2-dydroxy-2H-1,4-benzoxazin-3(4H)-one]
inhibitory activity of bacterial growth (bacterial growth): inhibitory activity

CC(Cc1ccc(O)c(O)c1)C(C)Cc1ccc(O)c(O)c1 (stereo not shown) [NDGA, nordihydroguaiaretic acid, reference compound]
Type of inhibition (5-hLOX [2]): competitive | % of inhibition (5-hLOX) (5-hLOX [2]; Flavanones at 10 µM): 93 ± 5.870%

O=C(O)c1cc(O)c(O)c(O)c1 [gallic acid]
inhibitory activity of bacterial growth (bacterial growth): inhibitory activity | inhibition activity of S. aureus ATCC (S. aureus ATCC): 67.2%

O=C1C(O)Oc2ccccc2N1O (stereo not shown) [DIBOA, 2,4-dihydroxy-2H-1,4-benzoxazin-3(4H)-one]
inhibitory activity of bacterial growth (bacterial growth): inhibitory activity

COc1cc(C2CC(=O)c3c(O)cc(O)cc3O2)ccc1O (stereo not shown) [Compound 4, 3’-methoxy-4’,5,7-trihydroxyflavanone]
inhibition at 10 µM (5-hLOX [2]; Flavanones at 10 µM): 11.7 ± 2.45% | MIC (E. coli ATCC25922): > 100 µg/mL | MIC (E. coli 33.1): > 100 µg/mL | MIC (S. aureus NTCC8325-4): > 100 µg/mL | MIC (S. aureus MRSA 97-7): > 100 µg/mL | MIC (S. aureus MRSA 622-4): > 100 µg/mL

COCC(=O)N(c1c(C)cccc1C)C(C)C(=O)OC (stereo not shown) [Metalaxil, reference compound]
Percentage of inhibition on in vitro mycelial growth of P. cinnamomi (P. cinnamomi; 50 mg/L): 100 ± 0.2% | Percentage of inhibition on in vitro mycelial growth of P. cinnamomi (P. cinnamomi; 150 mg/L): 100 ± 0.1% | Percentage of inhibition on in vitro mycelial growth of P. cinnamomi (P. cinnamomi; 250 mg/L): 100 ± 0.1%

CC(=O)O[C@H]1C(=O)[C@@]2(C)[C@H]([C@H](OC(=O)c3ccccc3)[C@]3(O)C[C@H](OC(=O)[C@H](O)[C@@H](NC(=O)c4ccccc4)c4ccccc4)C(C)=C1C3(C)C)[C@]1(OC(C)=O)CO[C@@H]1C[C@@H]2O [Taxol, reference compound]
CC50 [3]: 480 ± 80 nM | CC50 at 72 h [4]: 400 ± 70 nM | CC50 [5]: 210 ± 480 nM
